14 molecules from PMC6445168, “Design, synthesis and antimalarial activity of novel bis{N-[(pyrrolo[1,2-a]quinoxalin-4-yl)benzyl]-3-aminopropyl}amine derivatives” (Journal of Enzyme Inhibition and Medicinal Chemistry, 2017) can be followed below.

Where a name gives a salt, the structure may show the parent alone. Read-outs that look alike come from different tables or passages of the source.

Series [1] deals with P. falciparum CQ-resistant strain W2. Description: In vitro antiplasmodial activity, SYBR Green I fluorescence-based method, W2 strain. The series is classed as cell-based, Plasmodium falciparum. The conditions noted are these: for IC50: Plasmodium falciparum, read-out: P. falciparum strains IC50 values, W2; for Selectivity Index HepG2/W2: ratio CC50 HepG2 / IC50 W2. Here is the method:
(§1) The in vitro antiplasmodial activities were tested over concentrations ranging from 39 nM to 40 μM against culture-adapted Plasmodium falciparum reference strains 3D7 and W2. […] The parasites were cultivated in RPMI medium (Sigma-Aldrich, Lyon, France) supplemented with 0.5% Albumax I (Life Technologies corporation, Paisley, United Kingdom), hypoxanthine (Sigma-Aldrich), gentamicin (Sigma-Aldrich), and human erythrocytes and were incubated at 37 °C in a candle jar, as described previously. The P. falciparum drug susceptibility test was carried out in 96-well flat bottom sterile plates under a final volume of 250 μL. After a 48 h incubation with the drugs, quantities of DNA in treated and control cultures of parasites in human erythrocytes were compared according to the SYBR Green I (Sigma-Aldrich) fluorescence-based method[38]^,[39]. Briefly, after incubation, plates were frozen at -20 °C until use. They were then left to thaw for 2 h at room temperature and 100 μL of the homogenized culture were transferred to 96-well flat bottom sterile black plates (Nunc Inc) already containing 100 μL of the SYBR Green I lysis buffer (2xSYBR Green, 20 mM Tris base pH 7.5, 5 mM EDTA, 0.008% w/v saponin, 0.08% w/v Triton X-100). […] Plates were incubated for 1 h at room temperature and then read on a fluorescence plate reader (Tecan, Austria) using excitation and emission wavelengths of 485 and 535 nm, respectively.

Series [2] has as its system P. falciparum CQ-sensitive strain 3D7. Briefly: In vitro antiplasmodial activity, SYBR Green I fluorescence-based method, 3D7 strain. The series is classed as cell-based, Plasmodium falciparum. The conditions noted are these: for IC50: Plasmodium falciparum, 3D7, 48 h, read-out: P. falciparum strains IC50 values, 3D7; for Selectivity Index HepG2/3D7: ratio CC50 HepG2 / IC50 3D7. Here is the method:
as §1

For series [3], the system named is L. donovani (MHOM/IN/00/DEVI) promastigotes. Briefly: In vitro antileishmanial activity on promastigotes, MTT assay. The format is cell-based. The note with it: Leishmania donovani, 72 h incubation, mean ± SD of three independent experiments. The procedure:
L. donovani (MHOM/IN/00/DEVI) used in this study was provided by the CNR Leishmania (Montpellier, France). The effects of the tested compounds on the growth of L. donovani (MHOM/IN/00/DEVI)promastigotes were assessed by MTT assay[41] .Briefly, promastigotes in log-phase in Schneider′s medium supplemented with 20% fetal calf serum (FCS), 2 mM L-glutamine and antibiotics (100 U/mL penicillin and 100 μg/mL streptomycin), were incubated at an average density of 10^6 parasites/mL in sterile 96-well plates with various concentrations of compounds dissolved in DMSO (final concentration less than 0.5% v/v), in duplicate. Appropriate controls treated by DMSO and pentamidine or amphotericin B (reference drugs purchased from Sigma-Aldrich) were added to each set of experiments. After a 72 h incubation period at 27 °C, parasite metabolic activity was determined. Each plate-well was then microscope-examined for detecting possible precipitate formation. 20 μL of MTT 3–(4,5-dimethylthiazol-2-yl)-2,5-diphenyltetrazolium bromide) solution (5 mg/mL) were added to each well followed by incubation for another 4 h. The enzyme reaction was then stopped by addition of 100 μL of 50% isopropanol – 10% sodium dodecyl sulfate[42] .Plates were shaken vigorously (300 rpm) for 10 minutes and the absorbance measured in a plate reader at 570 nm in a BIO-TEK ELx808 Absorbance Microplate Reader. […] IC50 were calculated by non-linear regression analysis processed on doseresponse curves, using TableCurve 2D V5.0 software. IC50 values represent the mean value calculated from three independent experiments.
A general note: Tetrazolium dyes change colour on reduction, which living cells bring about.

Series [4] in a line: Cytotoxicity evaluation, MTT assay. The format is cell-based, human. The conditions noted are these: human, HepG2 cells (hepatocarcinoma cell line, ATCC HB-8065); HepG2, 72 h incubation, mean ± SD of three independent experiments. Here is the method: These assays were performed toward the human HepG2 cell line (HepG2 CC50). […] These cells express many of the hepatocyte-specific metabolic enzymes, thus enabling the cytotoxicity of tested product metabolites to be evaluated. […] Duplicate assays were performed for each sample. Each plate-well was then microscope-examined for detecting possible precipitate formation before the medium was aspirated from the wells. 100 μL of MTT solution (0.5 mg/mL in medium without FCS) were then added to each well. […] After this time, the MTT solution was removed and DMSO (100 μL) was added to dissolve the resulting blue formazan crystals. Plates were shaken vigorously (300 rpm) for 5 minutes. The absorbance was measured at 570 nm with 630 nm as reference wavelength spectrophotometer using a BIO-TEK ELx808 Absorbance Microplate Reader. DMSO was used as blank and doxorubicin (Sigma Aldrich) as positive control. Cell viability was calculated as percentage of control (cells incubated without compound). The 50% cytotoxic concentration was determined from the dose-response curve by using the TableCurve 2D V5.0 software (Systat Software, San Jose, CA).

Series [5] has as its system Plasmodium telomeric quadruplex FPf1T. Briefly: FRET melting experiments, FPf1T. The series is classed as binding, Plasmodium falciparum. The note with it: compound at 5 μM, 200 nM oligonucleotide, K+ condition; result in words. Here is the method:
(§2) FRET melting experiments were performed with dual-labeled oligonucleotides mimicking the Plasmodium telomeric sequences FPf1T [FAM-^5′(GGGTTTA)3-GGG^3′-TAMRA] and FPf8T [FAM-^5′(GGGTTCA)3GGG^3′-TAMRA] and the human telomeric sequence F21T [FAM-(GGGTTA)3-GGG^3′- TAMRA][36]^,[43]. The oligonucleotides were prefolded in 10 mM lithium cacodylate buffer (pH 7.2), with 10 mM KCl and 90 mM LiCl (K^+ condition). […] The data obtained were normalized between 0 and 1, and the temperature required for half-denaturationof oligonucleotides corresponded to the emission value of 0.5 was calculated as ΔTm. Each experiment was performed in duplicate with 200 nM of labeled oligonucleotide and 0, 1, 2, or 5 μM of compound under K^+ condition. For each compound, two independent experiments were carried out. The data were plotted using OriginPro 9.1 software (OriginLab Corporation, Northampton, MA).

In series [6] the test system is Plasmodium telomeric quadruplex FPf8T. Briefly: FRET melting experiments, FPf8T. The series is classed as binding, Plasmodium falciparum. The note with it: compound at 5 μM, 200 nM oligonucleotide, K+ condition; result in words. Here is the method: as §2
Series [7] deals with human telomeric quadruplex F21T. Description: FRET melting experiments, F21T. The series is classed as binding. The conditions noted are these: compound at 5 μM, 200 nM oligonucleotide, K+ condition; result in words. Here is the method: as §2
The mark [8] stands for this setting: chloroquine-resistant strain W2, 48 h incubation.
[9] abbreviates: chloroquine-sensitive strain 3D7, 48 h incubation.

By melting point is commonly meant the temperature, or range, at which the solid turns liquid. On to `COc1ccc2nc(-c3ccc(CNCCCN4CCN(CCCNCc5ccc(-c6nc7ccc(OC)cc7n7cccc67)cc5)CC4)cc3)c3cccn3c2c1` (as salt: ammonium) [1g, Bis{N-[4–(8-methoxypyrrolo[1,2-a]quinoxalin-4-yl)benzyl]-3-aminopropyl}piperazine], for which the melting point is 236 to 239 °C.

As for `COc1cccc2nc(-c3ccc(CNCCCN(C)CCCNCc4ccc(-c5nc6cccc(OC)c6n6cccc56)cc4)cc3)c3cccn3c12` (as salt: ammonium) [1h, Bis{N-[4–(9-methoxypyrrolo[1,2-a]quinoxalin-4-yl)benzyl]-3-aminopropyl}methylamine], the melting point was 160 to 162 °C.

`CCOc1ccn2c1c(-c1ccc(CNCCCN(C)CCCNCc3ccc(-c4nc5ccccc5n5ccc(OCC)c45)cc3)cc1)nc1ccccc12` (as salt: ammonium) [1j, Bis{N-[4–(3-ethoxypyrrolo[1,2-a]quinoxalin-4-yl)benzyl]-3-aminopropyl}methylamine] showed a melting point of 192 to 195 °C.

Molecule `CCOc1ccn2c1c(-c1ccc(CNCCCN3CCN(CCCNCc4ccc(-c5nc6ccccc6n6ccc(OCC)c56)cc4)CC3)cc1)nc1ccccc12` (as salt: ammonium) [1k, Bis{N-[4–(3-ethoxypyrrolo[1,2-a]quinoxalin-4-yl)benzyl]-3-aminopropyl}piperazine] yielded a melting point of 218 to 220 °C.

As to `CN(CCCNCc1cccc(-c2nc3ccccc3n3cccc23)c1)CCCNCc1cccc(-c2nc3ccccc3n3cccc23)c1` (as salt: ammonium) [1m, Bis{N-[3-(pyrrolo[1,2-a]quinoxalin-4-yl)benzyl]-3-aminopropyl}methylamine], the melting point was 209 to 211 °C.

Consider `COc1ccc2nc(-c3cccc(CNCCCN(C)CCCNCc4cccc(-c5nc6ccc(OC)cc6n6cccc56)c4)c3)c3cccn3c2c1` (as salt: ammonium) [1o, Bis{N-[3–(8-methoxypyrrolo[1,2-a]quinoxalin-4-yl)benzyl]-3-aminopropyl}methylamine], for which the melting point lay in the range of 188 to 191 °C.

In turn, `COc1ccc2nc(-c3cccc(CNCCCN4CCN(CCCNCc5cccc(-c6nc7ccc(OC)cc7n7cccc67)c5)CC4)c3)c3cccn3c2c1` (as salt: ammonium) [1p, Bis{N-[3–(8-methoxypyrrolo[1,2-a]quinoxalin-4-yl)benzyl]-3-aminopropyl}piperazine] returned a melting point of 234 to 237 °C.

For the molecule `c1ccc2c(c1)cc1c(-c3ccc(CNCCCN4CCN(CCCNCc5ccc(-c6nc7ccccc7n7c6cc6ccccc67)cc5)CC4)cc3)nc3ccccc3n12` (as salt: ammonium) [1q, Bis{N-[4-(indolo[1,2-a]quinoxalin-6-yl)benzyl]-3-aminopropyl}piperazine], the melting point is greater than 260 °C.

Turning to `COc1ccc2c(c1)nc(-c1ccc(CNCCCN(CCCNCc3ccc(-c4nc5cc(OC)ccc5n5cccc45)cc3)CCCNCc3ccc(-c4nc5cc(OC)ccc5n5cccc45)cc3)cc1)c1cccn12` (as salt: ammonium) [1s, Tris{N-[4–(7-methoxypyrrolo[1,2-a]quinoxalin-4-yl)benzyl]-3-aminopropyl}amine], the melting point was in the range of 192 to 194 °C.

Consider `COc1ccc2nc(-c3cccc(CNCCCN(CCCNCc4cccc(-c5nc6ccc(OC)cc6n6cccc56)c4)CCCNCc4cccc(-c5nc6ccc(OC)cc6n6cccc56)c4)c3)c3cccn3c2c1` (as salt: ammonium) [1t, Tris{N-[3–(8-methoxypyrrolo[1,2-a]quinoxalin-4-yl)benzyl]-3-aminopropyl}amine], for which the melting point lay within 184 to 187 °C.

Consider `COc1ccc2nc(-c3cccc(CNCCOCCOCCOCCNCc4cccc(-c5nc6ccc(OC)cc6n6cccc56)c4)c3)c3cccn3c2c1` (as salt: ammonium) [1u, N,N′-[oxybis(2,1-ethanediyloxy-2,1-ethanediyl)]bis-3–(8-methoxypyrrolo[1,2-a]quinoxalin-4-yl)benzylamine], for which the melting point fell in the range of 141 to 144 °C.

The term IC50 denotes the point on the concentration scale where inhibition reaches its midpoint. By CC50 is commonly meant the concentration that lowers cell viability or growth by half. Low readings indicate harm at low concentration, high ones better tolerance by the cells. `COc1ccc2c(c1)nc(-c1ccc(CNCCCN3CCN(CCCNCc4ccc(-c5nc6cc(OC)ccc6n6cccc56)cc4)CC3)cc1)c1cccn12` [1e, Bis{N-[4–(7-methoxypyrrolo[1,2-a]quinoxalin-4-yl)benzyl]-3-aminopropyl}piperazine]: the IC50 in series [1] (setting [8]) was 0.21 ± 0.03 µM; in series [2] (setting [9]) it was 2.62 ± 0.25 µM; in series [3] it was 2.52 ± 0.1 µM. In series [1], the “Selectivity Index HepG2/W2” value was found to be 6.95. In series [2], the “Selectivity Index HepG2/3D7” value was 0.56. Besides, half-maximal cytotoxicity in series [4] (CC50 at 72 h) was put at 1.46 ± 0.6 µM. The “Thermal stabilization (ΔTm) on FPf1T” value in series [5] is on record as “more active on the Plasmodium sequences with the higher ΔTm”. Besides, the “Thermal stabilization (ΔTm) on FPf8T” value in series [6] was “more active on the Plasmodium sequences with the higher ΔTm”.

For `COc1cccc2nc(-c3ccc(CNCCCN4CCN(CCCNCc5ccc(-c6nc7cccc(OC)c7n7cccc67)cc5)CC4)cc3)c3cccn3c12` [1i, Bis{N-[4–(9-methoxypyrrolo[1,2-a]quinoxalin-4-yl)benzyl]-3-aminopropyl}piperazine], the values for the IC50 in series [1] (setting [8]), in series [2] (setting [9]) and in series [3] were 0.32 ± 0.04 µM, 1.28 ± 0.1 µM and 1.58 ± 0.1 µM, respectively. Also, the “Selectivity Index HepG2/W2” value in series [1] turned out to be 4.16. Further, in series [2], the “Selectivity Index HepG2/3D7” value was 1.04. In series [4], this molecule returned a CC50 at 72 h of 1.33 ± 0.3 µM. The “Thermal stabilization (ΔTm) on FPf1T” value in series [5] is “more active on the Plasmodium sequences with the higher ΔTm”. Besides, in series [6], the “Thermal stabilization (ΔTm) on FPf8T” value is “more active on the Plasmodium sequences with the higher ΔTm”.

`CCN(CC)CCCC(C)Nc1ccnc2cc(Cl)ccc12` (centres unmarked) [Chloroquine, reference compound]: the IC50 worked out at 0.2 ± 0.03 µM in series [1] (W2, 48 h) and 0.08 ± 0.003 µM in series [2]. Besides, the “Thermal stabilization (ΔTm) on FPf1T” value in series [5] is reported as “very slight stabilization”. In series [6], the “Thermal stabilization (ΔTm) on FPf8T” value is given as “very slight stabilization”. For the same molecule, the “Thermal stabilization (ΔTm) on F21T” value in series [7] was “very slight stabilization”.
